Measurements reported in the NIST ThermoML archive (doi:10.1016/j.fluid.2010.08.022).
Numbers after ± are expanded uncertainties.

Details: 101.33 kPa; for speed of sound: Sing-around technique in a fixed-path interferometer; for mass density: Vibrating tube method

CCCCCCCC/C=C\CCCCCCCC(=O)O.NCCO [2-hydroxyethylammonium oleate]
Details	mass density [kg/m3]	speed of sound [m/s]
278.16 K, Crystal	955.929 ± 2.9	1635.4 ± 3.7
278.41 K, Crystal	955.757 ± 2.9	1634.1 ± 3.7
278.66 K, Crystal	955.58 ± 2.9	1632.7 ± 3.7
278.9 K, Crystal	955.409 ± 2.9	1631.4 ± 3.7
279.16 K, Crystal	955.234 ± 2.9	1630 ± 3.7
279.41 K, Crystal	955.057 ± 2.9	1628.7 ± 3.7
279.65 K, Crystal	954.881 ± 2.9	1627.4 ± 3.7
279.91 K, Crystal	954.704 ± 2.9	1626.1 ± 3.7
280.16 K, Crystal	954.527 ± 2.9	1624.7 ± 3.7
280.41 K, Crystal	954.349 ± 2.8	1623.4 ± 3.7
280.65 K, Crystal	954.172 ± 2.8	1622.1 ± 3.7
280.91 K, Crystal	953.991 ± 2.8	1620.8 ± 3.7
281.15 K, Crystal	953.811 ± 2.8	1619.5 ± 3.7
281.41 K, Crystal	953.63 ± 2.8	1618.2 ± 3.7
281.66 K, Crystal	953.448 ± 2.8	1616.8 ± 3.7
281.91 K, Crystal	953.266 ± 2.8	1615.5 ± 3.7
282.16 K, Crystal	953.081 ± 2.8	1614.2 ± 3.7
282.41 K, Crystal	952.898 ± 2.8	1612.9 ± 3.7
282.66 K, Crystal	952.714 ± 2.8	1611.6 ± 3.7
282.91 K, Crystal	952.526 ± 2.8	1610.3 ± 3.7
283.16 K, Crystal	952.337 ± 2.8	1608.9 ± 3.7
283.41 K, Crystal	952.15 ± 2.8	1607.6 ± 3.7
283.66 K, Crystal	951.962 ± 2.8	1606.3 ± 3.7
283.91 K, Crystal	951.769 ± 2.8	1605 ± 3.7
284.16 K, Crystal	951.578 ± 2.8	1603.6 ± 3.7
284.41 K, Crystal	951.383 ± 2.8	1602.3 ± 3.7
284.66 K, Crystal	951.188 ± 2.8	1600.8 ± 3.7
284.91 K, Crystal	950.989 ± 2.8	1599.3 ± 3.7
285.15 K, Crystal	950.796 ± 2.8	1597.7 ± 3.7
285.4 K, Crystal	950.604 ± 2.8	1595.8 ± 3.7
285.65 K, Crystal	950.404 ± 2.8	1592.8 ± 3.7
285.9 K, Crystal	950.405 ± 2.8	1593.2 ± 3.7
286.15 K, Liquid crystal of unknown type	944.693 ± 1.7	1554.4 ± 3.7
286.4 K, Liquid crystal of unknown type	944.221 ± 1.7	1552.7 ± 3.7
286.65 K, Liquid crystal of unknown type	944.256 ± 1.7	1553.3 ± 3.7
286.9 K, Liquid crystal of unknown type	943.886 ± 1.7	1551.5 ± 3.7
287.15 K, Liquid crystal of unknown type	943.629 ± 1.7	1550.2 ± 3.7
287.4 K, Liquid crystal of unknown type	943.416 ± 1.7	1548.9 ± 3.7
287.65 K, Liquid crystal of unknown type	943.228 ± 1.7	1547.7 ± 3.7
287.9 K, Liquid crystal of unknown type	943.055 ± 1.7	1546.7 ± 3.7
288.15 K, Liquid crystal of unknown type	942.888 ± 1.7	1545.7 ± 3.7
288.4 K, Liquid crystal of unknown type	942.726 ± 1.7	1544.7 ± 3.7
288.65 K, Liquid crystal of unknown type	942.565 ± 1.7	1543.7 ± 3.7
288.9 K, Liquid crystal of unknown type	942.405 ± 1.7	1542.7 ± 3.7
289.15 K, Liquid crystal of unknown type	942.244 ± 1.7	1541.8 ± 3.7
289.4 K, Liquid crystal of unknown type	942.083 ± 1.7	1540.8 ± 3.7
289.65 K, Liquid crystal of unknown type	941.923 ± 1.7	1539.9 ± 3.7
289.9 K, Liquid crystal of unknown type	941.764 ± 1.7	1539 ± 3.7
290.15 K, Liquid crystal of unknown type	941.604 ± 1.7	1538.1 ± 3.7
290.4 K, Liquid crystal of unknown type	941.445 ± 1.7	1537.2 ± 3.7
290.66 K, Liquid crystal of unknown type	941.282 ± 1.7	1536.2 ± 3.7
290.9 K, Liquid crystal of unknown type	941.124 ± 1.7	1535.3 ± 3.7
291.15 K, Liquid crystal of unknown type	940.965 ± 1.7	1534.4 ± 3.7
291.4 K, Liquid crystal of unknown type	940.805 ± 1.7	1533.5 ± 3.7
291.65 K, Liquid crystal of unknown type	940.646 ± 1.7	1532.6 ± 3.7
291.91 K, Liquid crystal of unknown type	940.485 ± 1.7	1531.7 ± 3.7
292.15 K, Liquid crystal of unknown type	940.327 ± 1.7	1530.8 ± 3.7
292.41 K, Liquid crystal of unknown type	940.167 ± 1.7	1530 ± 3.7
292.65 K, Liquid crystal of unknown type	940.008 ± 1.7	1529.1 ± 3.7
292.9 K, Liquid crystal of unknown type	939.848 ± 1.7	1528.2 ± 3.7
293.16 K, Liquid crystal of unknown type	939.688 ± 1.7	1527.3 ± 3.7
293.4 K, Liquid crystal of unknown type	939.529 ± 1.7	1526.4 ± 3.7
293.66 K, Liquid crystal of unknown type	939.369 ± 1.7	1525.5 ± 3.7
293.9 K, Liquid crystal of unknown type	939.211 ± 1.7	1524.6 ± 3.7
294.16 K, Liquid crystal of unknown type	939.05 ± 1.7	1523.7 ± 3.7
294.41 K, Liquid crystal of unknown type	–	1522.9 ± 3.7
